Experimental findings from US20250074891A1 (Anaxis Pharma Pty Ltd., priority 2021, published 2025) are described below.

For orientation: Kd means a measure of binding affinity in units of concentration.

The structures appear in SMILES notation. A value given as a limit tells only on which side of the number the result lay.

Holding throughout (settings): Table 35
The target of one assay is MLKL (full length) (Homo sapiens (Human), UniProt Q8NB16). The assay is described as follows: KINOMEscan binding assay, MLKL (full length). The procedure:
(§1) Kinase assays. For most assays, kinase-tagged T7 phage strains were grown in parallel in 24-well blocks in an E. coli host derived from the BL21 strain. E. coli were grown to log-phase and infected with T7 phage from a frozen stock (multiplicity of infection=0.4) and incubated with shaking at 32° C. until lysis (90-150 minutes).
(§2) The Hill Slope was set to −1.

The target of a further assay is RIP1 (Homo sapiens (Human), UniProt Q13546). As to the kind of experiment: KINOMEscan binding assay, RIP1.
The target of another assay is RIP3 (Homo sapiens (Human), UniProt Q9Y572). The assay is described as follows: KINOMEscan binding assay, RIP3. The procedure:
as §1, §2

RIP1, sequence (Q13546 whole entry): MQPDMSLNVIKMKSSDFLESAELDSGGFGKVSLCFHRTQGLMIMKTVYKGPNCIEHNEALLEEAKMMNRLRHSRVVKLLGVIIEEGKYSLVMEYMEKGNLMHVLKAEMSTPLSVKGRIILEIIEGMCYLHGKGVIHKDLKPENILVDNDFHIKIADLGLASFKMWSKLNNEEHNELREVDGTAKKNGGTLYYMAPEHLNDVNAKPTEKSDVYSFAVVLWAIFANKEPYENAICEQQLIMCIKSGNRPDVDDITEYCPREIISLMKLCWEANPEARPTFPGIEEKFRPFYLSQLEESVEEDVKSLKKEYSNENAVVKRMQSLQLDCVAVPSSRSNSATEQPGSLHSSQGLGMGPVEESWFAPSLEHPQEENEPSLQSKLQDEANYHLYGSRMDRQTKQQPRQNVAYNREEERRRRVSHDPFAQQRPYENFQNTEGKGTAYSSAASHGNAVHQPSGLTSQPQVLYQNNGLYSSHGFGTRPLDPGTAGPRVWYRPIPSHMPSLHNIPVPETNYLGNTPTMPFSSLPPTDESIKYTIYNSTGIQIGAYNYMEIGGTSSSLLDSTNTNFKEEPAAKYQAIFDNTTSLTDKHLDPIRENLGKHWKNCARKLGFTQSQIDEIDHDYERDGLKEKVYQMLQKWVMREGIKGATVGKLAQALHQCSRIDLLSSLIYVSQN
MLKL (full length), sequence (Q8NB16 whole entry): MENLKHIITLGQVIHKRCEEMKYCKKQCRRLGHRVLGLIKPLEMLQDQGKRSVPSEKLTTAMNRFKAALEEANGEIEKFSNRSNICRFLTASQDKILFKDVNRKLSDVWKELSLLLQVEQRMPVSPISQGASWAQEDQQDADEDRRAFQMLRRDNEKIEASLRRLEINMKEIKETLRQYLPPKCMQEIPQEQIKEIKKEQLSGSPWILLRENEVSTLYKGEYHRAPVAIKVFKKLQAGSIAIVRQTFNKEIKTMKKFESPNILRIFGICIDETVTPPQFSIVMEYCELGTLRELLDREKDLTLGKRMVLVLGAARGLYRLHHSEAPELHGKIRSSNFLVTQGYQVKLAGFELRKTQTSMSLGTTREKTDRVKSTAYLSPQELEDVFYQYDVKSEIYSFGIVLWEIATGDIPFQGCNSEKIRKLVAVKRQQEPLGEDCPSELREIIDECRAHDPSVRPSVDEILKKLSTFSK
RIP3, sequence (Q9Y572 whole entry): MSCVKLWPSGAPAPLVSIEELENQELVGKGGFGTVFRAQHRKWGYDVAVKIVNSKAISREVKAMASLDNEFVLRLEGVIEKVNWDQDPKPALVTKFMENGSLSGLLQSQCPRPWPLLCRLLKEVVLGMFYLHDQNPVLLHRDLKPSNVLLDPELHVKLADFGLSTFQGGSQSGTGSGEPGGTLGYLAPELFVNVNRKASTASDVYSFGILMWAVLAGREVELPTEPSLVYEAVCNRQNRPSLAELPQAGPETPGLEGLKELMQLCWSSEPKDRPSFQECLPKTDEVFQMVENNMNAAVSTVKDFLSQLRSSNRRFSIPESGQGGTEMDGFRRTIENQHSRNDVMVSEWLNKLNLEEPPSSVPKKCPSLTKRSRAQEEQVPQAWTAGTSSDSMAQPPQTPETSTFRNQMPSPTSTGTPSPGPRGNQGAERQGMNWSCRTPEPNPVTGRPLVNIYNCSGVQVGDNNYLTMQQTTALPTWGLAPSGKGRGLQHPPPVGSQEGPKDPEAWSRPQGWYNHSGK

On to `NC(=O)c1c(-c2ccc(NS(=O)(=O)CC(F)(F)F)c(OCc3ccc(F)cc3)c2)n[nH]c1Nc1cccc(C(F)F)n1` [Compound 173, 5-((6-(difluoromethyl)pyridine-2-yl)amino)-3-(3-((4-fluorobenzyl)oxy)-4-((2,2,2-trifluoroethyl)sulfonamido)phenyl)-1H-pyrazole-4-carboxamide], for which the Kd on MLKL (full length) is < 0.01 µM; on RIP1 it was > 30 µM; on RIP3 it was > 30 µM.
`NC(=O)c1c(-c2ccc(NS(=O)(=O)CC(F)(F)F)c(OCc3ccc(F)c(F)c3)c2)n[nH]c1Nc1cnccn1` [Compound 175, 3-(3-((3,4-difluorobenzyl)oxy)-4-((2,2,2-trifluoroethyl)sulfonamido)phenyl)-5-(pyrazin-2-ylamino)-1H-pyrazole-4-carboxamide]: the Kd at MLKL (full length) was < 0.01 µM; on RIP1 it was > 30 µM; on RIP3 it was > 30 µM.
For the compound `NC(=O)c1c(-c2ccc(NS(=O)(=O)CC(F)(F)F)c(OCc3ccc(F)cc3)c2)n[nH]c1Nc1ccc(C(F)(F)F)nc1` [Compound 176, 3-(3-((4-fluorobenzyl)oxy)-4-((2,2,2-trifluoroethyl)sulfonamido)phenyl)-5-((6-(trifluoromethyl)pyridine-3-yl)amino)-1H-pyrazole-4-carboxamide], the Kd on MLKL (full length) was < 0.01 µM; at RIP1 it was > 30 µM; on RIP3 it was > 30 µM.
On to `NC(=O)c1c(-c2ccc(NS(=O)(=O)C(F)F)c(Oc3ccc(F)cc3)c2)n[nH]c1Nc1cnccn1` [Compound 177, 3-(4-((difluoromethyl)sulfonamido)-3-(4-fluorophenoxy)phenyl)-5-(pyrazin-2-ylamino)-1H-pyrazole-4-carboxamide], for which the Kd is < 0.01 µM at MLKL (full length), > 30 µM on RIP1 and > 30 µM on RIP3.
Consider `NC(=O)c1c(-c2ccc(NS(=O)(=O)CC(F)F)c(OCc3ccc(F)cc3)c2)n[nH]c1Nc1cccc(C(F)(F)F)n1` [Compound 178, 3-(4-((2,2-difluoroethyl)sulfonamido)-3-((4-fluorobenzyl)oxy)phenyl)-5-((6-(trifluoromethyl)pyridine-2-yl)amino)-1H-pyrazole-4-carboxamide], for which the values for the Kd on MLKL (full length), at RIP1 and on RIP3 were < 0.01 µM, > 30 µM and > 30 µM, respectively.
`CCS(=O)(=O)Nc1ccc(-c2n[nH]c(Nc3cccc(C(F)F)n3)c2C(N)=O)cc1OCc1ccc(F)cc1` [Compound 179, 5-((6-(difluoromethyl)pyridine-2-yl)amino)-3-(4-(ethylsulfonamido)-3-((4-fluorobenzyl)oxy)phenyl)-1H-pyrazole-4-carboxamide]: the Kd on MLKL (full length) was < 0.01 µM; on RIP1, > 30 µM; at RIP3, > 30 µM.
With `NC(=O)c1c(-c2ccc(NS(=O)(=O)CC(F)F)c(OCc3ccc(F)cc3)c2)n[nH]c1Nc1cnccn1` [Compound 180, 3-(4-((2,2-difluoroethyl)sulfonamido)-3-((4-fluorobenzyl)oxy)phenyl)-5-(pyrazin-2-ylamino)-1H-pyrazole-4-carboxamide], the Kd on MLKL (full length) is < 0.01 µM; on RIP1 it was > 30 µM; at RIP3, > 30 µM.
With `Cc1cnc(Nc2[nH]nc(-c3ccc(NS(=O)(=O)CCC(F)(F)F)c(OCc4ccc(F)cc4)c3)c2C(N)=O)cn1` [Compound 183, 3-(3-((4-fluorobenzyl)oxy)-4-((3,3,3-trifluoropropyl)sulfonamido)phenyl)-5-((5-methylpyrazin-2-yl)amino)-1H-pyrazole-4-carboxamide], the Kd at MLKL (full length) is < 0.01 µM; at RIP1, > 30 µM; on RIP3, > 30 µM.
Take `NC(=O)c1c(-c2ccc(NS(=O)(=O)CCC(F)(F)F)c(OCc3ccc(F)cc3)c2)n[nH]c1Nc1cnccn1` [Compound 184, 3-(3-((4-fluorobenzyl)oxy)-4-((3,3,3-trifluoropropyl)sulfonamido)phenyl)-5-(pyrazin-2-ylamino)-1H-pyrazole-4-carboxamide]: the figures for the Kd at MLKL (full length), on RIP1 and on RIP3 were < 0.01 µM, > 30 µM and > 30 µM, respectively.
With `CCS(=O)(=O)Nc1ccc(-c2n[nH]c(Nc3cnccn3)c2C(N)=O)cc1Oc1ccc(Cl)cc1` [Compound 185, 3-(3-(4-chlorophenoxy)-4-(ethylsulfonamido)phenyl)-5-(pyrazin-2-ylamino)-1H-pyrazole-4-carboxamide], the Kd is < 0.01 µM on MLKL (full length), > 30 µM at RIP1 and > 30 µM at RIP3.
On to `NC(=O)c1c(-c2ccc(NS(=O)(=O)CC(F)(F)F)c(OCc3ccc(F)cc3)c2)n[nH]c1Nc1ccnc(C(F)(F)F)n1` [Compound 186, 3-(3-((4-fluorobenzyl)oxy)-4-((2,2,2-trifluoroethyl)sulfonamido)phenyl)-5-((2-(trifluoromethyl)pyrimidin-4-yl)amino)-1H-pyrazole-4-carboxamide], for which the Kd on MLKL (full length) is < 0.01 µM; at RIP1, > 30 µM; at RIP3 it was > 30 µM.
On to `NC(=O)c1c(-c2ccc(NS(=O)(=O)C(F)F)c(OCc3ccc(F)cc3)c2)n[nH]c1Nc1ccc(C(F)(F)F)nc1` [Compound 188, 3-(4-((difluoromethyl)sulfonamido)-3-((4-fluorobenzyl)oxy)phenyl)-5-((6-(trifluoromethyl)pyridine-3-yl)amino)-1H-pyrazole-4-carboxamide], for which the Kd was < 0.01 µM on MLKL (full length), > 30 µM at RIP1 and > 30 µM on RIP3.
With `COc1cnc(Nc2[nH]nc(-c3ccc(NS(=O)(=O)C(F)F)c(OCc4ccc(Cl)cc4)c3)c2C(N)=O)cn1` [Compound 190, 3-(3-((4-chlorobenzyl)oxy)-4-((difluoromethyl)sulfonamido)phenyl)-5-((5-methoxypyrazin-2-yl)amino)-1H-pyrazole-4-carboxamide], the Kd on MLKL (full length) was < 0.01 µM; on RIP1 it was > 30 µM; at RIP3, > 30 µM.
With `COc1cnc(Nc2[nH]nc(-c3ccc(NS(=O)(=O)C(F)F)c(OCc4ccc(F)cc4)c3)c2C(N)=O)cn1` [Compound 191, 3-(4-((difluoromethyl)sulfonamido)-3-((4-fluorobenzyl)oxy)phenyl)-5-((5-methoxypyrazin-2-yl)amino)-1H-pyrazole-4-carboxamide], the values for the Kd at MLKL (full length), on RIP1 and on RIP3 were < 0.01 µM, > 30 µM and > 30 µM, respectively.
Regarding `CCS(=O)(=O)Nc1ccc(-c2n[nH]c(Nc3cnccn3)c2C(N)=O)cc1O[C@H](C)c1ccc(F)cc1` [Compound 193, (R)-3-(4-(ethylsulfonamido)-3-(1-(4-fluorophenyl)ethoxy)phenyl)-5-(pyrazin-2-ylamino)-1H-pyrazole-4-carboxamide], the Kd is < 0.01 µM at MLKL (full length), > 30 µM on RIP1 and > 30 µM at RIP3.
On to `CCS(=O)(=O)Nc1ccc(-c2n[nH]c(Nc3ccc(C(F)(F)F)nc3)c2C(N)=O)cc1OCc1ccc(F)cc1` [Compound 194], for which the dissociation constant Kd is < 0.01 µM at MLKL (full length), > 30 µM at RIP1 and > 30 µM at RIP3.
Consider `CCS(=O)(=O)Nc1ccc(-c2n[nH]c(Nc3ccnc(C(F)(F)F)n3)c2C(N)=O)cc1OCc1ccc(F)cc1` [Compound 195, 3-(4-(ethylsulfonamido)-3-((4-fluorobenzyl)oxy)phenyl)-5-((2-(trifluoromethyl)pyrimidin-4-yl)amino)-1H-pyrazole-4-carboxamide], for which the Kd was < 0.01 µM at MLKL (full length), > 30 µM on RIP1 and > 30 µM on RIP3.
With `CCS(=O)(=O)Nc1ccc(-c2n[nH]c(Nc3cnccn3)c2C(N)=O)c(OCc2ccc(Cl)cc2)c1` [Compound 198, 3-(2-((4-chlorobenzyl)oxy)-4-(ethylsulfonamido)phenyl)-5-(pyrazin-2-ylamino)-1H-pyrazole-4-carboxamide], the Kd on MLKL (full length) was < 0.01 µM; on RIP1 it was > 30 µM; at RIP3, > 30 µM.
As for `CCS(=O)(=O)Nc1ccc(-c2n[nH]c(Nc3cnccn3)c2C(N)=O)cc1O[C@@H](C)c1ccc(F)cc1` [Compound 199, (S)-3-(4-(ethylsulfonamido)-3-(1-(4-fluorophenyl)ethoxy)phenyl)-5-(pyrazin-2-ylamino)-1H-pyrazole-4-carboxamide], the Kd is < 0.01 µM on MLKL (full length), > 30 µM on RIP1 and > 30 µM at RIP3.
Take `CCS(=O)(=O)Nc1ccc(-c2n[nH]c(Nc3ccccn3)c2C(N)=O)c(OCc2ccc(F)cc2)c1` [Compound 201]: the Kd was < 0.01 µM at MLKL (full length), > 30 µM on RIP1 and > 30 µM at RIP3.
Take `NC(=O)c1c(-c2ccc(NS(=O)(=O)C(F)F)c(OCc3ccc(F)cc3)c2)n[nH]c1Nc1cnccn1` [Compound 202, 3-(4-((difluoromethyl)sulfonamido)-3-((4-fluorobenzyl)oxy)phenyl)-5-(pyrazin-2-ylamino)-1H-pyrazole-4-carboxamide]: the Kd was < 0.01 µM on MLKL (full length), > 30 µM on RIP1 and > 30 µM on RIP3.
As for `CCS(=O)(=O)Nc1ccc(-c2n[nH]c(Nc3cnccn3)c2C(N)=O)cc1Oc1cccc(F)c1` [Compound 204, 3-(4-(ethylsulfonamido)-3-(3-fluorophenoxy)phenyl)-5-(pyrazin-2-ylamino)-1H-pyrazole-4-carboxamide], the Kd at MLKL (full length) is < 0.01 µM; on RIP1, > 30 µM; on RIP3, > 30 µM.
Regarding `NC(=O)c1c(-c2ccc(NS(=O)(=O)C(F)(F)F)cc2)n[nH]c1Nc1cccc(C(F)(F)F)n1` [Compound 205], the Kd was < 0.01 µM on MLKL (full length), > 30 µM at RIP1 and > 30 µM on RIP3.
For `CCS(=O)(=O)Nc1ccc(-c2n[nH]c(Nc3cnccn3)c2C(N)=O)cc1OCCc1ccccc1Cl` [Compound 206, 3-(3-(2-chlorophenethoxy)-4-(ethylsulfonamido)phenyl)-5-(pyrazin-2-ylamino)-1H-pyrazole-4-carboxamide], the Kd was < 0.01 µM at MLKL (full length), > 30 µM at RIP1 and > 30 µM on RIP3.
